Where “and” joins values, the source holds several entries; their conditions need not be identical. Identical values can stand only once. Inconclusive results and toxic doses are left out. Square brackets hold non-standard residues; d marks the D form. Peptide text beside a SMILES is read from it. ξ: configuration not given here. ξNle = CCCCC(N)C(=O)O
Tested on: BDF1 mice, B16 melanoma ip, median survival T/C
Assay: NCI In Vivo Anticancer Drug Screen. Data for tumor model B16 Melanoma (intraperitoneal) in B6D2F1 (BDF1) mice
Conditions: endpoint: median survival time, higher = longer survival
Procedure, shortened: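 Read-out: survival or tumor size, given as treated/control ratio. Controls received vehicle only; animals bore transplantable tumors.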

[1] = dose: 6.25 mg/kg/injection, schedule: Q01DX009 (ip), vehicle: saline with Tween-80
[2] = dose: 12.5 mg/kg/injection, schedule: Q01DX009 (ip), vehicle: saline with Tween-80
[3] = dose: 25.0 mg/kg/injection, schedule: Q01DX009 (ip), vehicle: saline with Tween-80
[4] = dose: 50.0 mg/kg/injection, schedule: Q01DX009 (ip), vehicle: saline with Tween-80
[5] = dose: 100.0 mg/kg/injection, schedule: Q01DX009 (ip), vehicle: saline with Tween-80
[6] = dose: 200.0 mg/kg/injection, schedule: Q01DX009 (ip), vehicle: saline with Tween-80
[7] = dose: 12.5 mg/kg/injection, schedule: Q01DX009 (ip), vehicle: Klucel (hydroxypropylcellulose) (HPC)
[8] = dose: 25.0 mg/kg/injection, schedule: Q01DX009 (ip), vehicle: Klucel (hydroxypropylcellulose) (HPC)
[9] = dose: 200.0 mg/kg/injection, schedule: Q01DX009 (ip), vehicle: Klucel (hydroxypropylcellulose) (HPC)
[10] = dose: 25.0 mg/kg/injection, schedule: Q01DX009 (ip), vehicle: water
[11] = dose: 50.0 mg/kg/injection, schedule: Q01DX009 (ip), vehicle: water
[12] = dose: 100.0 mg/kg/injection, schedule: Q01DX009 (ip), vehicle: water
[13] = dose: 400.0 mg/kg/injection, schedule: Q01DX009 (ip), vehicle: saline with Tween-80
[14] = dose: 100.0 mg/kg/injection, schedule: Q01DX009 (ip), vehicle: Klucel (hydroxypropylcellulose) (HPC)
[15] = dose: 400.0 mg/kg/injection, schedule: Q01DX009 (ip), vehicle: Klucel (hydroxypropylcellulose) (HPC)
[16] = dose: 100.0 mg/kg/injection, schedule: Q04DX003 (ip), vehicle: saline with Tween-80
[17] = dose: 50.0 mg/kg/injection, schedule: Q01DX009 (ip), vehicle: Klucel (hydroxypropylcellulose) (HPC)

C=C1C(=O)OC2C=C(C)CC3C=C(CCC=C(C)CCC12)C(=O)O3 (centres undefined) was tested, and the T/C (dose: 4.0 mg/kg/injection, schedule: Q01DX009 (ip), vehicle: Klucel (hydroxypropylcellulose) (HPC)) was 90 % of control, the T/C (dose: 8.0 mg/kg/injection, schedule: Q01DX009 (ip), vehicle: Klucel (hydroxypropylcellulose) (HPC)) was 105 % of control and the T/C (dose: 16.0 mg/kg/injection, schedule: Q01DX009 (ip), vehicle: Klucel (hydroxypropylcellulose) (HPC)) was 116 % of control. For the same molecule, the T/C (dose: 32.0 mg/kg/injection, schedule: Q01DX009 (ip), vehicle: Klucel (hydroxypropylcellulose) (HPC)) was 101 % of control.

In the case of O=C1CC(C(=O)N2Cc3cc4ccccc4nc3C2)CO1 (centres undefined), the T/C [1] is reported as 111 % of control, the T/C [2] is reported as 115 % of control and the T/C [3] is reported as 113 % of control. For the same molecule, the T/C [4] was 109 % of control, the T/C [5] was 116 % of control and the T/C [6] was 100 % of control.

Clc1ccc2c(c1)C(Nc1cc3c4ccccc4ccc3c3ccccc13)c1cc(Cl)cc(Cl)c1-2 (centres undefined) was tested, and the T/C [1] was 86 % of control.

CCCCCCCCCCC(O)CN1CCN(c2ccc(C)cc2)CC1 (centres undefined) was tested, and the T/C [7] was 92 % of control, the T/C [8] was 105 % of control and the T/C [9] was 86 % of control.

In the case of CC1(C)C=CC2=C(O1)C(=O)c1ccccc1C2=O, the T/C [10] is reported as 104 % of control, the T/C [11] is reported as 99 % of control and the T/C [12] is reported as 93 % of control. For the same molecule, the T/C (dose: 200.0 mg/kg/injection, schedule: Q01DX009 (ip), vehicle: water) was 91 % of control.

In the case of CC1CN1P(=S)(Oc1ccccc1)N1CC1C (centres undefined), the T/C [3] is reported as 97 % of control, the T/C [4] is reported as 95 % of control and the T/C [5] is reported as 93 % of control and 97 % of control. The T/C [13] was 100 % of control.

For Cc1ccc(S(=O)(=O)c2ccc(Sc3cccc[n+]3[O-])c3nonc23)cc1, the T/C (dose: 80.0 mg/kg/injection, schedule: Q04DX002 (ip), vehicle: saline with Tween-80) was 97 % of control, the T/C (dose: 160.0 mg/kg/injection, schedule: Q04DX002 (ip), vehicle: saline with Tween-80) was 102 % of control and the T/C (dose: 320.0 mg/kg/injection, schedule: Q04DX002 (ip), vehicle: saline with Tween-80) was 100 % of control.

With COc1ccc(Cl)cc1NC(=O)c1ccccc1Cl the T/C [14] was 102 % of control, the T/C [9] was 108 % of control and the T/C [15] was 100 % of control.

In the case of CCOC(=O)c1ccc(NC(=O)NC)cc1, the T/C [16] is reported as 93 % of control, the T/C (dose: 200.0 mg/kg/injection, schedule: Q04DX003 (ip), vehicle: saline with Tween-80) is reported as 86 % of control and the T/C (dose: 400.0 mg/kg/injection, schedule: Q04DX003 (ip), vehicle: saline with Tween-80) is reported as 86 % of control.

In the case of CC(C)(C)OC(=O)NC(Cc1ccc(OCc2c(Cl)cccc2Cl)cc1)C(=O)O (centres undefined), the T/C [3] is reported as 101 % of control, the T/C [4] is reported as 104 % of control and the T/C [5] is reported as 86 % of control.

For C1OCN2CSCC12 (centres undefined), the T/C [2] was 108 % of control, the T/C [3] was 109 % of control and the T/C [4] was 101 % of control. The T/C [5] was 106 % of control.

C=COCCCCCC(C)C was tested, and the T/C [8] was 97 % of control, the T/C [17] was 102 % of control and the T/C [14] was 86 % of control and 91 % of control.

O=C1CC2(C(=O)N1CN1CCOCC1)c1ccccc1-c1ccccc12 was tested, and the T/C [8] was 103 % of control, the T/C [17] was 98 % of control and the T/C [14] was 98 % of control. The T/C [9] was 107 % of control and the T/C [15] was 115 % of control.

O=S(=O)(O)O.[NH-]CC1(C[NH-])CCCCC1.[Pt+2] was tested, and the T/C (dose: 8.0 mg/kg/injection, schedule: Q04DX003 (ip), vehicle: dextrose) was 161 % of control.

With CCCCC(NC(=O)CNC(=O)CN)C(=O)O (stereo not drawn) (H-Gly-Gly-[ξNle]-OH) the T/C [4] was 97 % of control, the T/C [5] was 103 % of control and the T/C [6] was 92 % of control. The T/C [13] was 93 % of control.

CN(C)C=NC1CCC(C(C)(C)C)CC1 (centres undefined) was tested, and the T/C (dose: 6.25 mg/kg/injection, schedule: Q01DX009 (ip), vehicle: Klucel (hydroxypropylcellulose) (HPC)) was 89 % of control, the T/C [7] was 93 % of control and the T/C [8] was 86 % of control.

In the case of CCC1CCCCN1C(=S)N/N=C(\C)c1ccccn1 (centres undefined), the T/C [1] is reported as 96 % of control and the T/C [2] is reported as 95 % of control.

With Cc1cc(C)c(NC(=O)Nc2cccc3ccccc23)c(C)c1 the T/C [8] was 91 % of control and the T/C [17] was 95 % of control.

CNc1ccc(C(=O)O)cc1I was tested, and the T/C [14] was 105 % of control, the T/C (dose: 100.0 mg/kg/injection, schedule: Q04DX003 (ip), vehicle: Klucel (hydroxypropylcellulose) (HPC)) was 100 % of control and the T/C [9] was 120 % of control. For the same molecule, the T/C (dose: 200.0 mg/kg/injection, schedule: Q04DX003 (ip), vehicle: Klucel (hydroxypropylcellulose) (HPC)) was 104 % of control, the T/C [15] was 91 % of control and the T/C (dose: 400.0 mg/kg/injection, schedule: Q04DX003 (ip), vehicle: Klucel (hydroxypropylcellulose) (HPC)) was 100 % of control.

In the case of CC(=O)NC(Cc1cc(I)c(OC(C)=O)c(I)c1)C(=O)O (centres undefined), the T/C [4] is reported as 100 % of control, the T/C [5] is reported as 97 % of control and the T/C [6] is reported as 90 % of control.

In the case of CC(=O)CC(=O)Nc1cccc(Cl)c1C, the T/C [17] is reported as 103 % of control, the T/C [14] is reported as 96 % of control and the T/C [9] is reported as 106 % of control.

C=CCC(C(C)=O)C(=O)OCC (centres undefined) was tested, and the T/C [14] was 106 % of control, the T/C [9] was 110 % of control and the T/C [15] was 110 % of control.

For CCOC(=O)/C=C/c1ccc2c(c1)OCO2, the T/C (dose: 66.0 mg/kg/injection, schedule: Q04DX003 (ip), vehicle: saline with Tween-80) was 97 % of control, the T/C [5] was 104 % of control and the T/C [16] was 97 % of control. For the same molecule, the T/C (dose: 150.0 mg/kg/injection, schedule: Q04DX003 (ip), vehicle: saline with Tween-80) was 100 % of control, the T/C [6] was 106 % of control and the T/C [13] was 102 % of control.

For COC1C=COC2(C)Oc3c(C)c(O)c4c(c3C2=O)/C(=N/C2CCC(O)OC2C)C=C(NC(=O)/C(C)=C\C(=O)C2CC2C(O)C(C)C(O)C(C)C(OC(C)=O)C1C)C4=O (centres undefined), the T/C (dose: 4.6 mg/kg/injection, schedule: Q01DX009 (ip), vehicle: saline with Tween-80) was 98 % of control and the T/C (dose: 18.5 mg/kg/injection, schedule: Q01DX009 (ip), vehicle: saline with Tween-80) was 97 % of control.

In the case of CN(C)CC/C=C1\c2ccccc2C(C)(C)c2ccc(Cl)cc21, the T/C [3] is reported as 118 % of control and the T/C [4] is reported as 92 % of control.

For CC(=O)C(=O)C1=C2CCCN2CCc2cc3c(cc21)OCO3, the T/C (dose: 12.5 mg/kg/injection, schedule: Q01DX009 (ip), vehicle: water) was 93 % of control, the T/C [10] was 98 % of control and the T/C [11] was 117 % of control. The T/C [12] was 89 % of control.

For CC(=O)Nc1ccc(S(=O)(=O)N/N=C\c2ccc(Cl)c(Cl)c2)cc1, the T/C [1] was 111 % of control, the T/C [2] was 105 % of control and the T/C [3] was 117 % of control.

In the case of Cc1cccc(C)c1NC(=O)c1ccccc1, the T/C (dose: 12.5 mg/kg/injection, schedule: Q01DX009 (ip), vehicle: saline) is reported as 93 % of control, the T/C [8] is reported as 89 % of control and the T/C [17] is reported as 100 % of control. For the same molecule, the T/C (dose: 50.0 mg/kg/injection, schedule: Q01DX009 (ip), vehicle: saline) was 90 % of control.

With Cc1cc(=O)c2c(o1)-c1c(cc(O)c(O)c1C(=O)O)OC2 the T/C [7] was 101 % of control, the T/C [8] was 105 % of control and the T/C [17] was 105 % of control. For the same molecule, the T/C [14] was 102 % of control and the T/C [9] was 106 % of control.

— PubChem BioAssay AID192 (DTP/NCI, 2004)
